US20070123546A1, “2-amino-7,8-dihydro-6H-pyrido[4,3-d]pyrimidin-5-ones” (Chiron Corporation, priority 2005, published 2007)

Biological target: His-tagged N-terminal ATP binding domain (amino acid residues 9-236) of HSP90α (Homo sapiens, UniProt P07900)
Test: HSP90 inhibitor binding potency: TRF competition binding assay
Conditions: Table 4; competition with biotinylated radicicol
Method in brief: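 Competition against biotinylated radicicol for binding to the His-tagged 9-236 ATP domain of HSP90α: 2 h, room temperature, HEPES/MgCl2/KCl/BSA buffer. Streptavidin capture, then europium-labeled anti-His antibody and enhancement solution; europium counts give IC50.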

| SMILES | IC50 [µM] |
| --- | --- |
| CCc1nc(N)nc2c1C(=O)N[C@@H](c1ccccc1-c1cccc(OC)n1)C2 [Compound 198, (R)-2-Amino-4-ethyl-7-[2-(6-methoxy-pyridin-2-yl)-phenyl]-7,8-dihydro-6H-pyrido[4,3-d]pyrimidin-5-one] | < 10 |
| CCc1nc(N)nc2c1C(=O)N[C@@H](c1ccccc1-c1cncc(OC)n1)C2 [Compound 199, (R)-2-Amino-4-ethyl-7-[2-(6-methoxy-pyrazin-2-yl)-phenyl]-7,8-dihydro-6H-pyrido[4,3-d]pyrimidin-5-one] | < 10 |
| COc1cncc(-c2ccccc2[C@H]2Cc3nc(N)ncc3C(=O)N2)n1 [Compound 203, (R)-2-Amino-7-[2-(6-methoxy-pyrazin-2-yl)-phenyl]-7,8-dihydro-6H-pyrido[4,3-d]pyrimidin-5-one] | < 10 |
| COc1nc(-c2ccccc2[C@H]2Cc3nc(N)nc(C)c3C(=O)N2)ncc1F [Compound 204, (R)-2-Amino-7-[2-(5-fluoro-4-methoxy-pyrimidin-2-yl)-phenyl]-4-methyl-7,8-dihydro-6H-pyrido[4,3-d]pyrimidin-5-one] | < 10 |
| COc1cccc(-c2ccccc2[C@H]2Cc3nc(N)ncc3C(=O)N2)n1 [Compound 206, (R)-2-Amino-7-[2-(6-methoxy-pyridin-2-yl)-phenyl]-7,8-dihydro-6H-pyrido[4,3-d]pyrimidin-5-one] | < 10 |
| COc1nc(-c2cc(F)ccc2[C@H]2Cc3nc(N)ncc3C(=O)N2)ccc1N [Compound 208, (R)-2-Amino-7-[2-(5-amino-6-methoxy-pyridin-2-yl)-4-fluoro-phenyl]-7,8-dihydro-6H-pyrido[4,3-d]pyrimidin-5-one] | < 10 |
| CCc1nc(N)nc2c1C(=O)N[C@@H](c1ccc(F)cc1-c1cncc(OC)n1)C2 [Compound 212, (R)-2-Amino-4-ethyl-7-[4-fluoro-2-(6-methoxy-pyrazin-2-yl)-phenyl]-7,8-dihydro-6H-pyrido[4,3-d]pyrimidin-5-one] | < 10 |
| CCOc1cncc(-c2cc(F)ccc2[C@H]2Cc3nc(N)nc(C)c3C(=O)N2)n1 [Compound 216, (R)-2-Amino-7-[2-(6-ethoxy-pyrazin-2-yl)-4-fluoro-phenyl]-4-methyl-7,8-dihydro-6H-pyrido[4,3-d]pyrimidin-5-one] | < 10 |
| CCOc1cncc(-c2cc(F)ccc2[C@H]2Cc3nc(N)nc(CC)c3C(=O)N2)n1 [Compound 217, (R)-2-Amino-7-[2-(6-ethoxy-pyrazin-2-yl)-4-fluoro-phenyl]-4-ethyl-7,8-dihydro-6H-pyrido[4,3-d]pyrimidin-5-one] | < 10 |
| CCOc1cncc(-c2cc(F)ccc2[C@H]2Cc3nc(N)ncc3C(=O)N2)n1 [Compound 218, (R)-2-Amino-7-[2-(6-ethoxy-pyrazin-2-yl)-4-fluoro-phenyl]-7,8-dihydro-6H-pyrido[4,3-d]pyrimidin-5-one] | < 10 |
| Cc1nc(N)nc2c1C(=O)N[C@@H](c1ccc(F)cc1C#N)C2 [Compound 219, 2-((R)-2-Amino-4-methyl-5-oxo-5,6,7,8-tetrahydro-pyrido[4,3-d]pyrimidin-7-yl)-5-fluoro-benzonitrile] | ≥ 10 |
| CCOc1cncc(-c2ccccc2[C@H]2Cc3nc(N)nc(C)c3C(=O)N2)n1 [Compound 220, (R)-2-Amino-7-[2-(6-ethoxy-pyrazin-2-yl)-phenyl]-4-methyl-7,8-dihydro-6H-pyrido[4,3-d]pyrimidin-5-one] | < 10 |
| Cc1nc(N)nc2c1C(=O)N[C@@H](c1ccc(F)cc1-c1n[nH]c(=O)o1)C2 [Compound 222, (R)-2-Amino-7-[4-fluoro-2-(5-oxo-4,5-dihydro-[1,3,4]oxadiazol-2-yl)-phenyl]-4-methyl-7,8-dihydro-6H-pyrido[4,3-d]pyrimi[…]din-5-one] | ≥ 10 |
| COc1cncc(-c2scnc2[C@@H]2Cc3nc(N)ncc3C(=O)N2)n1 [Compound 224, (S)-2-Amino-7-[5-(6-methoxy-pyrazin-2-yl)-thiazol-4-yl]-7,8-dihydro-6H-pyrido[4,3-d]pyrimidin-5-one] | < 10 |
| COc1ncc(-c2cc(F)ccc2[C@H]2Cc3nc(N)nc(C)c3C(=O)N2)s1 [Compound 225, (R)-2-Amino-7-[4-fluoro-2-(2-methoxy-thiazol-5-yl)-phenyl]-4-methyl-7,8-dihydro-6H-pyrido[4,3-d]pyrimidin-5-one] | < 10 |
| CCOc1nc(-c2cc(F)ccc2[C@H]2Cc3nc(N)nc(CC)c3C(=O)N2)cnc1N [Compound 226, (R)-2-Amino-7-[2-(5-amino-6-ethoxy-pyrazin-2-yl)-4-fluoro-phenyl]-4-ethyl-7,8-dihydro-6H-pyrido[4,3-d]pyrimidin-5-one] | < 10 |

Continued, values first:

| IC50 [µM] | SMILES |
| --- | --- |
| < 10 | CCOc1nc(-c2ccccc2[C@H]2Cc3nc(N)nc(C)c3C(=O)N2)cnc1N [Compound 197, (R)-2-Amino-7-[2-(5-amino-6-ethoxy-pyrazin-2-yl)-phenyl]-4-methyl-7,8-dihydro-6H-pyrido[4,3-d]pyrimidin-5-one] |
| < 10 | CCc1nc(N)nc2c1C(=O)N[C@@H](c1ccccc1-c1cnc(N)c(OC)n1)C2 [Compound 200, (R)-2-Amino-7-[2-(5-amino-6-methoxy-pyrazin-2-yl)-phenyl]-4-ethyl-7,8-dihydro-6H-pyrido[4,3-d]pyrimidin-5-one] |
| ≥ 10 | CCc1nc(N)nc2c1C(=O)N[C@@H](c1ccccc1-c1csc(OC)n1)C2 [Compound 201, (R)-2-Amino-4-ethyl-7-[2-(2-methoxy-thiazol-4-yl)-phenyl]-7,8-dihydro-6H-pyrido[4,3-d]pyrimidin-5-one] |
| < 10 | COc1nc(-c2cc(F)ccc2[C@H]2Cc3nc(N)nc(C)c3C(=O)N2)ncc1Cl [Compound 202, (R)-2-Amino-7-[2-(5-chloro-4-methoxy-pyrimidin-2-yl)-4-fluoro-phenyl]-4-methyl-7,8-dihydro-6H-pyrido[4,3-d]pyrimidin-5-one] |
| < 10 | COc1nc(-c2ccccc2[C@H]2Cc3nc(N)nc(C)c3C(=O)N2)ccc1N [Compound 205, (R)-2-Amino-7-[2-(5-amino-6-methoxy-pyridin-2-yl)-phenyl]-4-methyl-7,8-dihydro-6H-pyrido[4,3-d]pyrimidin-5-one] |
| ≥ 10 | Cc1nc(N)nc2c1C(=O)N[C@@H](c1ccc(F)cc1-c1nccc(N3CCCC3)n1)C2 [Compound 207, (R)-2-Amino-7-[4-fluoro-2-(4-pyrrolidin-1-yl-pyrimidin-2-yl)-phenyl]-4-methyl-7,8-dihydro-6H-pyrido[4,3-d]pyrimidin-5-one] |
| < 10 | COc1ccc(-c2cc(F)ccc2[C@H]2Cc3nc(N)nc(C)c3C(=O)N2)s1 [Compound 209, (R)-2-Amino-7-[4-fluoro-2-(5-methoxy-thiophen-2-yl)-phenyl]-4-methyl-7,8-dihydro-6H-pyrido[4,3-d]pyrimidin-5-one] |
| ≥ 10 | CCc1nc(N)nc2c1C(=O)N[C@@H](c1ccc(F)cc1Br)C2 [Compound 210, (R)-2-Amino-7-(2-bromo-4-fluoro-phenyl)-4-ethyl-7,8-dihydro-6H-pyrido[4,3-d]pyrimidin-5-one] |
| < 10 | CCc1nc(N)nc2c1C(=O)N[C@@H](c1ccc(F)cc1-c1cccc(OC)n1)C2 [Compound 211, (R)-2-Amino-4-ethyl-7-[4-fluoro-2-(6-methoxy-pyridin-2-yl)-phenyl]-7,8-dihydro-6H-pyrido[4,3-d]pyrimidin-5-one] |
| < 10 | COc1cccc(-c2cc(F)ccc2[C@H]2Cc3nc(N)nc(C)c3C(=O)N2)c1OC [Compound 213, (R)-2-Amino-7-(5-fluoro-2′,3′-dimethoxy-biphenyl-2-yl)-4-methyl-7,8-dihydro-6H-pyrido[4,3-d]pyrimidin-5-one] |
| < 10 | CCOc1nc(-c2cc(F)ccc2[C@H]2Cc3nc(N)ncc3C(=O)N2)cnc1N [Compound 214, (R)-2-Amino-7-[2-(5-amino-6-ethoxy-pyrazin-2-yl)-4-fluoro-phenyl]-7,8-dihydro-6H-pyrido[4,3-d]pyrimidin-5-one] |
| < 10 | CCc1nc(N)nc2c1C(=O)N[C@@H](c1ccc(F)cc1-c1csc(OC)n1)C2 [Compound 215, (R)-2-Amino-4-ethyl-7-[4-fluoro-2-(2-methoxy-thiazol-4-yl)-phenyl]-7,8-dihydro-6H-pyrido[4,3-d]pyrimidin-5-one] |
| < 10 | COc1nc(-c2ccccc2[C@H]2Cc3nc(N)nc(C)c3C(=O)N2)ncc1C [Compound 221, (R)-2-Amino-7-[2-(4-methoxy-5-methyl-pyrimidin-2-yl)-phenyl]-4-methyl-7,8-dihydro-6H-pyrido[4,3-d]pyrimidin-5-one] |
| < 10 | COc1nnc(-c2cc(F)ccc2[C@H]2Cc3nc(N)nc(C)c3C(=O)N2)o1 [Compound 223, (R)-2-Amino-7-[4-fluoro-2-(5-methoxy-[1,3,4]oxadiazol-2-yl)-phenyl]-4-methyl-7,8-dihydro-6H-pyrido[4,3-d]pyrimidin-5-one] |
| < 10 | COc1ccc([C@H]2Cc3nc(N)nc(C)c3C(=O)N2)c(-c2cncc(OC)n2)c1 [Compound 227, (R)-2-Amino-7-[4-methoxy-2-(6-methoxy-pyrazin-2-yl)-phenyl]-4-methyl-7,8-dihydro-6H-pyrido[4,3-d]pyrimidin-5-one] |
| < 10 | COc1nc(-c2ccccc2[C@H]2Cc3nc(N)ncc3C(=O)N2)cnc1N [Compound 229, (R)-2-Amino-7-[2-(5-amino-6-methoxy-pyrazin-2-yl)-phenyl]-7,8-dihydro-6H-pyrido[4,3-d]pyrimidin-5-one] |
| < 10 | CCOc1nc(-c2ccccc2[C@H]2Cc3nc(N)nc(C)c3C(=O)N2)cs1 [Compound 230, (R)-2-Amino-7-[2-(2-ethoxy-thiazol-4-yl)-phenyl]-4-methyl-7,8-dihydro-6H-pyrido[4,3-d]pyrimidin-5-one] |
| < 10 | CCOc1nc(-c2cc(F)ccc2[C@H]2Cc3nc(N)nc(C)c3C(=O)N2)cs1 [Compound 231, (R)-2-Amino-7-[2-(2-ethoxy-thiazol-4-yl)-4-fluoro-phenyl]-4-methyl-7,8-dihydro-6H-pyrido[4,3-d]pyrimidin-5-one] |
